The experiment concerns the target T1, ALK (baculovirus expressed human ALK kinase domain F1098-K1410) (Homo sapiens, UniProt Q9UM73).
T1 construct: baculovirus expressed human ALK kinase domain F1098-K1410; made in house
As to the kind of experiment: Luciferase-Coupled Chemiluminescent Kinase assay (LCCA), ALK biochemical activity. Conditions: inhibition of ALK; mean values; 1 μM ATP, 4 μM poly-AEKY, 12 nM ALK, 2 hours ambient temperature. As for the experimental part: ALK biochemical activity was assessed using a Luciferase-Coupled Chemiluminescent Kinase assay (LCCA) format in which kinase activity was measured as the percent ATP remaining following the kinase reaction. ATP remaining after the kinase reaction was detected by luciferase-luciferin-coupled chemiluminescence.
The reaction was initiated by mixing test compounds, 1 μM ATP, 4 μM poly-AEKY and 12 nM ALK (baculovirus expressed human ALK kinase domain F1098-K1410) in a 20 μL assay buffer ([…] pH 7.5, 10 mM MgCl2, 0.02% Triton X-100, 100 mM DTT, 2 mM MnCl2). The mixture was incubated at ambient temperature for 2 hours after which 20 μL luciferase-luciferin mix was added and the chemiluminescent signal read using a Wallac Victor^2 reader. The luciferase-luciferin mix consists of 50 mM HEPES, pH 7.8, 8.5 μg/mL oxalic acid (pH 7.8), 5 (or 50) mM DTT, 0.4% Triton X-100, 0.25 mg/mL coenzyme A, 63 μM AMP, 28 μg/mL luciferin and 40,000 units of light/mL luciferase.
Consumption of ATP by ALK can thus be quantified and utilized as a measure of inhibition of ALK activity by compounds described herein. By employing serial dilutions of compounds to be tested, the ability of test compounds to inhibit ALK activity can be determined.
T1 sequence (Q9UM73 1098-1410): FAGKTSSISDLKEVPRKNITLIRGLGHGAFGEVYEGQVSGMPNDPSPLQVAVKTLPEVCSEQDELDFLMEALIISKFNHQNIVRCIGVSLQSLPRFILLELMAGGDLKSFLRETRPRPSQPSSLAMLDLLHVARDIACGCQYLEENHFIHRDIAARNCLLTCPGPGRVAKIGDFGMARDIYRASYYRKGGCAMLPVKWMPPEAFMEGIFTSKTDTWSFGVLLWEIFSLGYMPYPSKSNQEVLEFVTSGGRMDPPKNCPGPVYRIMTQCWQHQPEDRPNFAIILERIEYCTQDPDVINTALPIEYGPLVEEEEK
By IC50 is commonly meant the concentration needed to halve the response being measured. A lower IC50 goes with inhibition by little substance. Consider `COc1cc2c(-c3ccc(O)c(OC(F)F)c3)nc3[nH]nc(C)c3c2cc1OC` [Example 76, 2-[(difluoromethyl)oxy]-4-[1-methyl-7,8-bis(methyloxy)-3H-pyrazolo[3,4-c]isoquinolin-5-yl]phenol], for which the 50% inhibitory concentration (IC50) fell in the range of 1000 to 2000 nM. `COc1ccc2c(-c3ccc(O)cc3)nc3[nH]nc(C)c3c2c1C` [Example 78, 4-[1,9-dimethyl-8-(methyloxy)-3H-pyrazolo[3,4-c]isoquinolin-5-yl]phenol]: the IC50 is at most 99 nM. Then `COc1cc(F)c2c(-c3ccc(O)cc3)nc3[nH]nc(C)c3c2c1F` [Example 79, 4-[6,9-difluoro-1-methyl-8-(methyloxy)-3H-pyrazolo[3,4-c]isoquinolin-5-yl]phenol], with at most 99 nM; and `COc1ccc2c(-c3ccc(O)c(Br)c3)nc3[nH]nc(C)c3c2c1OCCN1CCOCC1` [Example 80, 2-bromo-4-{1-methyl-8-(methyloxy)-9-[(2-morpholin-4-ylethyl)oxy]-3H-pyrazolo[3,4-c]isoquinolin-5-yl}phenol], with 100 to 999 nM. Under `COc1ccc2c(-c3ccc(O)c(Cl)c3)nc3[nH]nc(C)c3c2c1OCCN1CCOCC1` [Example 81, 2-chloro-4-{1-methyl-8-(methyloxy)-9-[(2-morpholin-4-ylethyl)oxy]-3H-pyrazolo[3,4-c]isoquinolin-5-yl}phenol] stands 100 to 999 nM; under `COc1cc2c(-c3ccc(O)cc3)nc3[nH]nc(CNCc4ccccc4)c3c2cc1OC` [Example 82, 4-(7,8-bis(methyloxy)-1-{[(phenylmethyl)amino]methyl}-3H-pyrazolo[3,4-c]isoquinolin-5-yl)phenol], 100 to 999 nM; under `COc1cc2c(-c3cc(C)c(O)cc3C)nc3[nH]nc(C)c3c2cc1OC` [Example 83, 2,5-dimethyl-4-[1-methyl-7,8-bis(methyloxy)-3H-pyrazolo[3,4-c]isoquinolin-5-yl]phenol], 100 to 999 nM.

In turn, `COc1cc2c(-c3cc(Cl)c(O)cc3Cl)nc3[nH]nc(C)c3c2cc1OC` [Example 85, 2,5-dichloro-4-[1-methyl-7,8-bis(methyloxy)-3H-pyrazolo[3,4-c]isoquinolin-5-yl]phenol] gave an IC50 of at most 99 nM. In the case of `COc1ccc2c(-c3ccc(O)c(Br)c3)nc3[nH]nc(C)c3c2c1OCC1CCN(C)CC1` [Example 87, 2-bromo-4-(1-methyl-8-(methyloxy)-9-{[(1-methylpiperidin-4-yl)methyl]oxy}-3H-pyrazolo[3,4-c]isoquinolin-5-yl)phenol], the IC50 is at most 99 nM. `COc1cc2c(-c3ccc(O)c(Cl)c3)nc3[nH]nc(C)c3c2cc1OCC1CCN(C)CC1` [Example 88, 2-chloro-4-(1-methyl-7-(methyloxy)-8-{[(1-methylpiperidin-4-yl)methyl]oxy}-3H-pyrazolo[3,4-c]isoquinolin-5-yl)phenol]: the IC50 was at most 99 nM. `COc1ccc2c(-c3ccc(O)cc3)nc3[nH]nc(C)c3c2c1F` [Example 89, 4-[9-fluoro-1-methyl-8-(methyloxy)-3H-pyrazolo[3,4-c]isoquinolin-5-yl]phenol] came in with a half-inhibitory concentration (IC50) of at most 99 nM.

On to `COCCOc1c(OC)ccc2c(-c3ccc(O)cc3)nc3[nH]nc(C)c3c12` [Example 90, 4-(1-methyl-8-(methyloxy)-9-{[2-(methyloxy)ethyl]oxy}-3H-pyrazolo[3,4-c]isoquinolin-5-yl)phenol], for which the IC50 was at most 99 nM. Then `COc1ccc2c(-c3ccc(O)c(Cl)c3)nc3[nH]nc(C)c3c2c1OCC1CCN(C)CC1` [Example 91, 2-chloro-4-(1-methyl-8-(methyloxy)-9-{[(1-methylpiperidin-4-yl)methyl]oxy}-3H-pyrazolo[3,4-c]isoquinolin-5-yl)phenol], with at most 99 nM; and `COc1cc2c(c(-c3ccc(O)cc3)nc3[nH]nc(C)c32)c(Br)c1C` [Example 92, 4-[6-bromo-1,7-dimethyl-8-(methyloxy)-3H-pyrazolo[3,4-c]isoquinolin-5-yl]phenol], with at most 99 nM. `COc1cc2c(c(-c3ccc(O)cc3)nc3[nH]nc(C)c32)c(F)c1OC` [Example 93, 4-[6-fluoro-1-methyl-7,8-bis(methyloxy)-3H-pyrazolo[3,4-c]isoquinolin-5-yl]phenol] gave an IC50 of at most 99 nM. For `COc1c(C)cc2c(-c3ccc(O)cc3)nc3[nH]nc(C)c3c2c1Cl` [Example 94, 4-[9-chloro-1,7-dimethyl-8-(methyloxy)-3H-pyrazolo[3,4-c]isoquinolin-5-yl]phenol], the half-maximal inhibitory concentration (IC50) is at most 99 nM. As to `CCN1CCC(COc2cc3c(cc2OC)c(-c2ccc(O)c(Cl)c2)nc2[nH]nc(C)c23)CC1` [Example 95, 2-chloro-4-[8-{[(1-ethylpiperidin-4-yl)methyl]oxy}-1-methyl-7-(methyloxy)-3H-pyrazolo[3,4-c]isoquinolin-5-yl]phenol], the IC50 is at most 99 nM. Then `COc1cc2c(-c3ccc(O)cc3Cl)nc3[nH]nc(C)c3c2cc1OC` [Example 96, 3-chloro-4-[1-methyl-7,8-bis(methyloxy)-3H-pyrazolo[3,4-c]isoquinolin-5-yl]phenol], with at most 99 nM; and `COCCOc1ccc2c(-c3ccc(O)cc3)nc3[nH]nc(C)c3c2c1OCCOC` [Example 97, 4-(1-methyl-8,9-bis{[2-(methyloxy)ethyl]oxy}-3H-pyrazolo[3,4-c]isoquinolin-5-yl)phenol], with at most 99 nM; and `Cc1n[nH]c2nc(-c3ccc(O)cc3)c3ccccc3c12` [Example 98, 4-(1-methyl-3H-pyrazolo[3,4-c]isoquinolin-5-yl)phenol], with at most 99 nM.

Take `Cc1n[nH]c2nc(-c3ccc(O)c(Cl)c3)c3ccccc3c12` [Example 99, 2-chloro-4-(1-methyl-3H-pyrazolo[3,4-c]isoquinolin-5-yl)phenol]: the half-inhibitory concentration (IC50) is at most 99 nM.

`Cc1n[nH]c2nc(-c3ccc(O)c(Br)c3)c3ccccc3c12` [Example 100, 2-bromo-4-(1-methyl-3H-pyrazolo[3,4-c]isoquinolin-5-yl)phenol] registered an IC50 of at most 99 nM. Under `COc1cc2c(cc1C)c(-c1ccc(O)c(Cl)c1)nc1[nH]nc(C)c12` [Example 101, 2-chloro-4-[1,7-dimethyl-8-(methyloxy)-3H-pyrazolo[3,4-c]isoquinolin-5-yl]phenol] stands at most 99 nM; under `COc1cc2c(cc1C)c(-c1ccc(O)c(Br)c1)nc1[nH]nc(C)c12` [Example 102, 2-bromo-4-[1,7-dimethyl-8-(methyloxy)-3H-pyrazolo[3,4-c]isoquinolin-5-yl]phenol], at most 99 nM. `COc1cc2c(-c3ccc(O)c(Cl)c3)nc3[nH]nc(C)c3c2cc1OCC1CCN(C(C)C)CC1` [Example 103, 2-chloro-4-[1-methyl-8-({[1-(1-methylethyl)piperidin-4-yl]methyl}oxy)-7-(methyloxy)-3H-pyrazolo[3,4-c]isoquinolin-5-yl]phenol] had an IC50 of at most 99 nM. Then `COc1ccc2c(-c3ccc(O)cc3)nc3[nH]nc(C)c3c2c1Br` [Example 104, 4-[9-bromo-1-methyl-8-(methyloxy)-3H-pyrazolo[3,4-c]isoquinolin-5-yl]phenol], with at most 99 nM; and `COc1c(Cl)cc2c(-c3ccc(O)cc3)nc3[nH]nc(C)c3c2c1F` [Example 105, 4-[7-chloro-9-fluoro-1-methyl-8-(methyloxy)-3H-pyrazolo[3,4-c]isoquinolin-5-yl]phenol], with 100 to 999 nM.

The values above are taken from patent publication US7872014B2, “Anaplastic lymphoma kinase modulators and methods of use” (Exelixis, Inc., priority 2003, dated 2011).
